Earlier results in US12419848B2, “Treatment of hyperinflammatory syndrome” (priority 2020, dated 2025).

Legend:
P2X7R = molecular target: T1, P2X7R (Homo sapiens, UniProt Q99572); settings: read-out: EC50 to activate P2X7R; cited from earlier work
T1 sequence (Q99572 1-595): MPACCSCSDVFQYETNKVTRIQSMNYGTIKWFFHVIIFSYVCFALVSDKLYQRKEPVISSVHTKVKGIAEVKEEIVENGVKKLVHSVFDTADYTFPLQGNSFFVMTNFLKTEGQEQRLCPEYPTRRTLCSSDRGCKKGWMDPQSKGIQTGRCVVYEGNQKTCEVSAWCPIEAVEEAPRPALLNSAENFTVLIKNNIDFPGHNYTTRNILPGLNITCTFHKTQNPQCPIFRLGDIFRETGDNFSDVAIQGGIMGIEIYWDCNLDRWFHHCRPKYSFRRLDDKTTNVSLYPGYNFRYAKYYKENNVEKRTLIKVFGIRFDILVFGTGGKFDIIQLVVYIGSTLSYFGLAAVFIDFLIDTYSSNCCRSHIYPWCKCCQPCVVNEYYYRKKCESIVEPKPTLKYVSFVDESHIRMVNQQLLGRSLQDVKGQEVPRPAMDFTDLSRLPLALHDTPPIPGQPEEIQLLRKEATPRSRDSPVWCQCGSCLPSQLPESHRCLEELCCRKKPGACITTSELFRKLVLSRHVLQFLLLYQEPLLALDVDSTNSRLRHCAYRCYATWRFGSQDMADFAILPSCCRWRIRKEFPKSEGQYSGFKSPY

P1 receptors = settings: cited from earlier work

SMILES | EC50 (P2X7R) | EC50 (extracellular concentration for half maximal effect) (P1 receptors)
Nc1ncnc2c1ncn2[C@@H]1O[C@H](COP(=O)(O)OP(=O)(O)OP(=O)(O)O)[C@@H](O)[C@H]1O [ATP] | > 1000 µM | –
Nc1ncnc2c1ncn2[C@@H]1O[C@H](CO)[C@@H](O)[C@H]1O [adenosine] | – | nanomolar range
